Experimental data taken from patent publication US8232407B2, “Nitrogenous heterocyclic compounds with insecticidal activity, and the preparation and use thereof” (East China University of Science and Technology, priority 2008, dated 2012).
Where two headings read alike, the source gives them in different places.

Experiments:
Format in all cases: in vivo
Nilaparvata lugens = test: Insecticidal activities to plant hopper, spraying method; conditions: for mortality at 500 ppm: Nilaparvata lugens, read-out: Nilaparvata lugens Mortality (%) 500 ppm
In short: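 Nilaparvata lugens, 10 insects per tumbler, sprayed with 2 ml compound in acetone at 0.79-500 ppm, three replicates, aqueous acetone control. Dead insects counted after 24 h; mortality corrected against control survival.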

[1] = tested on: Pseudaletia separate Walker; test: Insecticidal activities to armyworm, leaf dipping and feeding
In short: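 Maize leaves dipped 3 s in acetone-formulated compound at 500 down to 1.57 ppm, dried and fed to armyworms, 10 insects per treatment in triplicate, aqueous acetone as control. Mortality was counted after 24 hours and corrected against control survival.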

Aphis craccivoral = test: Insecticidal activities to aphids, immersion method; conditions: for mortality at 500 ppm: Aphis, read-out: Aphis craccivoral Mortality (%) 500 ppm
In short: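 Wingless adult aphids feeding on bean sprouts were dipped 5 s in 500 ppm compound (DMF stock diluted in 0.2 mL/L aqueous Triton X-100), blotted and held at 23° C. Dead counted at 24 h, three replicates; mortality corrected against Triton-only controls.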

Plutella xylostella = test: Insecticidal activities to diamondback moth, feeding dipped leaves; conditions: for mortality at 500 ppm: Plutella xylostella, read-out: Plutella xylostella Mortality (%) 500 ppm
In short: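 Leaf-dip feeding assay: fresh cabbage leaves dipped 3 s in test solution, air-dried and fed to Plutella xylostella, 10 insects per treatment, three replicates, water control. Deaths counted after 24 h; mortality corrected against survival in the control group.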

[2] = 500 ppm, leaf dipping and feeding, counted after 24 hours
[3] = 500 ppm, spraying method, counted after 24 hours
[4] = 500 ppm, feeding dipped leaves, counted after 24 hours

Row | Structure (SMILES) | Nilaparvata lugens Mortality (%) 500 ppm (Nilaparvata lugens; in vivo) | Pseudaletia separate Walker Mortality (%) 500 ppm ([1]; in vivo) | Aphis craccivoral Mortality (%) 500 ppm (Aphis craccivoral; in vivo) | Plutella xylostella Mortality (%) 500 ppm (Plutella xylostella; in vivo) | also measured
1 | CC(c1ccc(Cl)nc1)N1CCN=C1C(=Cc1ccc([N+](=O)[O-])o1)[N+](=O)[O-] (racemic) [Compound 124] | 100% | 100% | 100% | 100% | 
2 | C[N+]1=C(C(=Cc2sc(Cl)cc2Cl)[N+](=O)[O-])N(Cc2ccc(Cl)nc2)CC1.[Cl-] [Compound 267] | 100% | 100% | 100% | 100% | 
3 | O=[N+]([O-])C(=Cc1oc(Br)cc1Br)C1=NCCCN1Cc1ccc(Cl)nc1 [Compound 56] | 100% | 100% | 100% | 100% | 
4 | O=[N+]([O-])C(=Cc1ccc(CO)o1)C1=NCCN1CC1CCOC1 (centres unmarked) [Compound 102] | 89% | 89% | 75% | 97% | 
5 | Cc1ccc(C=C(C2=NCCN2Cc2ccc(Cl)nc2)[N+](=O)[O-])o1 [Compound 12] | 100% | 100% | 100% | 100% | 
6 | C[N+]1=C(C(=Cc2cc(Cl)c(Cl)s2)[N+](=O)[O-])N(Cc2ccc(Cl)nc2)CC1.[Cl-] [Compound 266] | 100% | 100% | 100% | 100% | 
7 | O=[N+]([O-])C(=Cc1ccccc1O)C1=NCCN1Cc1ccc(Cl)nc1 [Compound 45] | 76% | 89% | 56% | 23% | 
8 | Cn1cccc1C=C(C1=NCCN1Cc1ccc(Cl)nc1)[N+](=O)[O-] [Compound 32] | 100% | 100% | 100% | 100% | 
9 | O=[N+]([O-])/C(=C/c1ccco1)C1=NCCN1CC1CCOC1 (centres unmarked) [Compound 91, 2-(2-(furan-2-yl)-1-nitrovinyl)-1-((tetrahydrofuran-3-yl)methyl)-4,5-dihydro-1H-imidazole] |  |  |  |  | mortality at 500 ppm (Nilaparvata lugens; 24 h): 100%; Pseudaletia separate Walker Mortality (%) 500 ppm [1, 2]: 98%; mortality at 500 ppm (Aphis craccivoral): 87%; mortality at 500 ppm (Plutella xylostella; 24 h): 100%
10 | CC[N+]1=C(C(=Cc2cccs2)[N+](=O)[O-])N(Cc2ccc(Cl)nc2)CC1.[Cl-] [Compound 291] | 100% | 100% | 100% | 100% | 
11 | N#CC(=Cc1ccc(CO)o1)C1=NCCN1Cc1ccc(Cl)nc1 [Compound 145] | 100% | 100% | 92% | 100% | 
12 | C[N+]1=C(C(=Cc2cccs2)[N+](=O)[O-])N(Cc2cnc(Cl)s2)CC1.[Cl-] [Compound 280] | 100% | 100% | 100% | 100% | 
13 | C[N+]1=C(C(=Cc2ccc(Cl)s2)[N+](=O)[O-])N(Cc2cnc(Cl)s2)CC1.[Cl-] [Compound 283] | 100% | 100% | 100% | 100% | 
14 | O=[N+]([O-])C(=Cc1ccc(Cl)o1)C1=NCCN1CC1CCOC1 (centres unmarked) [Compound 94] | 77% | 77% | 46% | 83% | 
15 | N#CC(=Cc1oc(Cl)cc1Cl)C1=NCCN1Cc1ccc(Cl)nc1 [Compound 143] | 100% | 86% | 75% | 85% | 
16 | O=[N+]([O-])C(=Cc1oc(Cl)cc1Cl)C1=NCCN1Cc1cnc(Cl)s1 [Compound 76] | 100% | 100% | 100% | 100% | 

Row | Structure (SMILES) | Nilaparvata lugens Mortality (%) 500 ppm (Nilaparvata lugens; in vivo) | Pseudaletia separate Walker Mortality (%) 500 ppm ([1]; in vivo) | Aphis craccivoral Mortality (%) 500 ppm (Aphis craccivoral; in vivo) | Plutella xylostella Mortality (%) 500 ppm (Plutella xylostella; in vivo) | also measured
17 | O=[N+]([O-])C(=Cc1cc(Br)c(Br)o1)C1=NCCCN1Cc1ccc(Cl)nc1 [Compound 55] | 100% | 100% | 98% | 100% | 
18 | CC(=C(C1=NCCN1Cc1ccc(Cl)nc1)[N+](=O)[O-])c1ccc(Cl)s1 [Compound 118] | 90% | 19% | 93% | 23% | 
19 | CC(c1ccc(Cl)nc1)N1CCN=C1C(=Cc1ccc[nH]1)[N+](=O)[O-] (racemic) [Compound 131] | 100% | 100% | 100% | 63% | 
20 | N#CC(=Cc1ccc([N+](=O)[O-])o1)C1=NCCN1Cc1ccc(Cl)nc1 [Compound 142] | 100% | 100% | 100% | 100% | 
21 | O=[N+]([O-])C(=Cc1cc(Br)co1)C1=NCCCN1Cc1ccc(Cl)nc1 [Compound 52] | 100% | 100% | 100% | 100% | 
22 | O=[N+]([O-])C(=Cc1sc(Cl)cc1Cl)C1=NCCN1Cc1ccc(Cl)nc1 [Compound 24] |  |  |  |  | Nilaparvata lugens Mortality (%) 500 ppm (Nilaparvata lugens; [3]): 100%; Pseudaletia separate Walker Mortality (%) 500 ppm [1, 2]: 100%; Aphis craccivoral Mortality (%) 500 ppm (Aphis craccivoral; 500 ppm, immersion method): 100%; Plutella xylostella Mortality (%) 500 ppm (Plutella xylostella; [4]): 100%
23 | N#CC(=Cc1ccco1)C1=NCCN1Cc1ccc(Cl)nc1 [Compound 140] | 100% | 100% | 100% | 100% | 
24 | C[N+]1=C(C(=Cc2ccc(Br)o2)[N+](=O)[O-])N(Cc2ccc(Cl)nc2)CC1.[Cl-] [Compound 248] | 100% | 100% | 100% | 100% | 
25 | CC(=C(C1=NCCN1Cc1ccc(Cl)nc1)[N+](=O)[O-])c1ccsc1 [Compound 116] | 94% | 76% | 89% | 64% | 
26 | O=[N+]([O-])C(=Cc1oc(Cl)cc1Cl)C1=NCCCN1Cc1ccc(Cl)nc1 [Compound 54] | 100% | 100% | 100% | 100% | 
27 | C[N+]1=C(C(=Cc2ccc([N+](=O)[O-])o2)[N+](=O)[O-])N(Cc2cnc(Cl)s2)CC1.[Cl-] [Compound 277] | 100% | 100% | 100% | 100% | 
28 | O=[N+]([O-])C(=Cc1oc(Br)cc1Br)C1=NCCN1Cc1cnc(Cl)s1 [Compound 78] | 100% | 100% | 100% | 100% | 
29 | O=[N+]([O-])/C(=C/c1ccco1)C1=NCCN1Cc1cnc(Cl)s1 [Compound 68, 1-((2-chlorothiozol-5-yl)methyl)-2-(2-(furan-2-yl)-1-nitrovinyl)-4,5-dihydro-1H-imidazole] |  |  |  |  | mortality at 500 ppm (Nilaparvata lugens; [3]): 100%; Pseudaletia separate Walker Mortality (%) 500 ppm [1, 2]: 100%; mortality at 500 ppm (Aphis craccivoral; 500 ppm, immersion method): 100%; mortality at 500 ppm (Plutella xylostella; [4]): 100%
30 | Cc1ccc(C=C(C2=NCCN2Cc2ccc(Cl)nc2)[N+](=O)[O-])s1 [Compound 27] | 100% | 100% | 100% | 100% | 
31 | C[N+]1=C(C(=Cc2sc(Br)cc2Br)[N+](=O)[O-])N(Cc2ccc(Cl)nc2)CC1.[Cl-] [Compound 269] | 100% | 100% | 100% | 100% | 
32 | Cn1cccc1C=C(C1=[N+](C)CCN1Cc1ccc(Cl)nc1)[N+](=O)[O-].[Cl-] [Compound 275] | 100% | 100% | 100% | 100% | 
